Data taken from US5229265A, “Process for analyzing clastogenic agents” (Litron Laboratories, priority 1990, dated 1993).

System: polychromatic cells (PCEs)
Assay: PCE count in blood by flow cytometry
Assay type: in vivo, mouse
Conditions: mice dosed with DMBA
Description: When two dyes are used for simultaneous micronucleus and PCE discrimination, the cell suspension is prepared as follows: The Hoechst 33258 working solution described above is prepared and is filtered through an 0.2 micron Acro-disk (Gilman Sciences). In addition, a propidium iodide (PI) working solution is prepared (5 mg PI/100 ml phosphate buffered saline (PBS)). A buffer-dye solution is then prepared by adding the PI solution (100 μl) and Hoechst 33258 working solution (25 μl) to PBS (867.5 μl). The resulting buffer-dye solution is then dispensed (992.5 μl) into samples tubes. A sample of fixed blood (15 μl) is then added to the corresponding tube. When blood from a malaria (P. berghei) infected mouse was fixed and stained by this procedure, the bivariate pattern shown in FIG. 1B resulted, in which a stronger red fluorescence signal was obtained. In this case, good resolution is achieved if BSA is omitted from the stained cell suspension. The pH of the stained solution is important for good fluorescence emission profiles and resolution of the different cell populations. With Hoechst 33258 and propidium iodide, good results can be obtained in the range from pH 6 to pH 8. Lower or higher pH levels cause a broadening of the fluorescence patterns which adversely affect the resolution of the PCes and micronucleated cells. Operationally,it is advisable to store the fixed samples and analyze freshly stained samples.
Although it is inappropriate to directly compare the number of MNs in the 0 hr and 96 hr samples because of this PCE change, it is possible to normalize the data to take into account said change. An increase in the number of PCEs will cause a decrease in the total number of MNs counted in the PCE window for a 96 hour sample. […]
Another staining embodiment of this invention involves the use of dual parameter data acquisition in conjunction with two dyes, Hoechst 33258 and propidium iodide so as to analyze both MNs and PCEs. […] Propidium iodide endows the PCEs with a strong red fluorescence signal which pulls them out of the RBC contour. […]

Compound: Cc1c2ccccc2c(C)c2c1ccc1ccccc12 [DMBA, dimethyl benzathracene]
- production of PCEs: production of PCEs is suppressed
